Measured values published in patent US20260200982A1, “HER RECEPTOR DERIVED PEPTIDES AND METHODS OF USE THEREOF” (Ramot at Tel-Aviv University Ltd., priority 2022, published 2026).
Bridges are numbered along the chain shown (N, C = ends). Primed or numbered codes have the meaning given here. Where no end group is shown, it is not given here. [ ]: non-standard residue; d: D form. The star is where a group is joined. FITC′ = fluorescein isothiocyanate; Myristoyl = CCCCCCCCCCCCCC(=O)*; S5 = C=CCCC[C@](C)(N)C(=O)O

Experiments:
Assay type in all cases: cell-based, human
[1] = test system: SKBR3 breast cancer cells; conditions: 80 μM peptide for 72 hours; FIG. 4A
Description: (§1) Cell lines—Human breast cancer cell lines SKBR3 [Peles E et al. EMBO J. (1993) 12(3):961-71] and MCF7 [Faigenbloom L et al., Mol Syst Biol. (2015) 11(12):845] and human glioblastoma U87 [Goldberg L et al. Cancer Res. (2006) 66(24):11709-17] cell line, as well as Rat-1 fibroblast cells and H-Ras-transformed Rat-1 cells (EJ cells) [Marom M et al. J Biol Chem. (1995) 270(38):22263-70] and human Panc-1 and MIA PaCa-2 pancreatic cell lines (Rak R et al. Oncoscience. 2014 1(1):39-48; Weisz B et al. Oncogene (1999) 18, 2579±2588) were all grown in Dulbecco's modified Eagle's medium (DMEM; Biological Industries, Beithaemek, Israel). Human colorectal cancer cell lines DLD-1 (ATTC Cat No. CCL-221), HCT-116 (ATTC Cat No. CCL-247) and LNCaP prostate cancer cells were grown in Roswell Park Memorial Institute 1640 (RPMI 1640) medium and McCoy's 5A media, respectively (Sigma-Aldrich). All media were supplemented with antibiotics and 10% heat-inactivated fetal bovine serum (FBS; Gibco). Human breast cell line MCF10A [Bott A et al. Oncotarget. (2017) 8(27):43897-43914] was grown in Dulbeco's Modified Eagle's Medium/Nutrient Mixture F-12 HAM medium (DMEM F-12 HAM; Sigma-Aldrich), supplemented with antibiotics, 5% inactivated horse serum (HS; Invitrogen), 2 mM L-glutamine (Biological Industries, Beithaemek, Israel), 0.1 μg/ml cholera toxin (Sigma-Aldrich), 0.5 μg/ml hydrocortisone (Sigma-Aldrich), 10 μg/ml insulin (Biological Industries, Beithaemek, Israel) and 2 ng/ml EGF (R&D Systems). Cells were incubated at 37° C. in 5% CO2 in air, and the medium was changed every 3-4 days. Cells were passaged in trypsin/disodium ethylenediaminetetraacetic acid (Biological Industries, Beithaemek, Israel) when confluency reached 70%. One day prior to treatment the cells were plated at ~50% confluency in a medium supplemented with 10% FBS or 5% HS, accordingly.
(§2) Methylene blue viability assay—Cells were plated in 96-wells plates at cell densities of 1.5×10^3 (EJ, DLD-1), 3×10^3 (Rat-1, HCT-116, U87), 5×10^3 (SKBR3, MCF7) and 6×10^3 (MCF10A) cells/well. […] Cell number determination was performed as described previously. IC-50 values were calculated using a non-linear regression model (logarithmic inhibitor vs. normalized response-variable slope) with the GraphPad Prism 6 software.

DLD-1 cells = test: Colony formation assay, DLD-1; conditions: 20 μM, 72 hours, FIG. 12
Experimental: Colony formation assay—Cells were plated onto 12-well plate (6×10^4 cells/well) and treated with either PBS or myr-NLS at the IC50 concentration for 3 days. Cells were collected and replated in 10-cm plates (at 3 dilutions of 1:10, 1:20 and 1:40). After 7-14 days when visible and yet separated colonies were formed, the cells were fixed with 0.1% acetic acid in PBS, and stained with 0.4% crystal violet in 0.1% acetic acid. Total colonies area was calculated using the ImageJ program.
In addition, a colony formation assay was conducted to further examine the anti-tumor effect of the myr-NLS (SEQ ID NO: 5), myr-NLS2 (SEQ ID NO: 15) and myr-NLS4 (SEQ ID NO: 17) peptides. To this end, DLD-1 cells were treated or untreated for 72 hours with 20 μM of the myr-peptides. Cells were then seeded at the same dilutions in new plates until colonies were formed.

MCF7 breast cancer cells = conditions: 72 hours
Description: as §1, §2

[2] = test system: non-cancerous (MCF10A) breast cell line; test: Methylene blue viability assay, MCF10A; conditions: 72 hours, 10 μM peptide; FIGS. 6A-B
Description: as §1
Methylene blue viability assay—Cells were plated in 96-wells plates at cell densities of 1.5×10^3 (EJ, DLD-1), 3×10^3 (Rat-1, HCT-116, U87), 5×10^3 (SKBR3, MCF7) and 6×10^3 (MCF10A) cells/well. On the following day, cells were treated as indicated, and grown for 72 hours. Cell number determination was performed as described previously. IC-50 values were calculated using a non-linear regression model (logarithmic inhibitor vs. normalized response-variable slope) with the GraphPad Prism 6 software.

## RRRRRRRRHIVRKRTLRRLL (R-NLS peptide)
[1]
  viability of SKBR3 breast cancer cells: significantly reduced viability

## Myr-KRRQQKIRKYTMRRLL-OH (Myristoyl-KRRQQKIRKYTMRRLL-OH; SMILES CCCCCCCCCCCCCC(=O)N[C@@H](CCCCN)C(=O)N[C@@H](CCCNC(=N)N)C(=O)N[C@@H](CCCNC(=N)N)C(=O)N[C@@H](CCC(N)=O)C(=O)N[C@@H](CCC(N)=O)C(=O)N[C@@H](CCCCN)C(=O)N[C@H](C(=O)N[C@@H](CCCNC(=N)N)C(=O)N[C@@H](CCCCN)C(=O)N[C@@H](Cc1ccc(O)cc1)C(=O)N[C@H](C(=O)N[C@@H](CCSC)C(=O)N[C@@H](CCCNC(=N)N)C(=O)N[C@@H](CCCNC(=N)N)C(=O)N[C@@H](CC(C)C)C(=O)N[C@@H](CC(C)C)C(=O)O)[C@@H](C)O)[C@@H](C)CC) [myr-NLS2]
DLD-1 cells
  colony formation (total colonies area): fewer and smaller colonies

## Myr-RRRHIVR(S5)RTL(S5)RLL (Myristoyl-RRRHIVR[S5]RTL[S5]RLL; staple 8-12; not fully specified; printed as Myr-RRRHIVR(S5)RTL(S5)RLL) [mN8-12]
MCF7 breast cancer cells; 10 μM peptide, FIGS. 6A-B
  MCF7 cell viability: decreased viability
[2]
  viability of non-cancerous MCF10 breast cells: decreased viability

## Myr-RRRHIVRK(FITC)RTLRRLL (Myristoyl-RRRHIVRK(FITC′)RTLRRLL) [myr-NLS-FITC]
MCF7 breast cancer cells; MCF7, FIG. 4E
  effect of FITC-conjugation on cell viability activity compared to myr-NLS: did not affect myr-NLS activity
